Measured values as given in patent publication US5126337A, “Thiazetoquinoline-3-carboxylic acid derivative and a pharmaceutical composition comprising the same” (priority 1989, dated 1992).
Converted amounts (≈) assume the structure as drawn.

Assays:
[1] = tested on: Enterococcus faecalis HPC 984; test: Antibacterial spectrum, MIC by twofold agar dilution method; format: cell-based; settings: HPC984, 10^6 cfu/ml, clinically isolated strain, Gram +, 18 hrs at 37° C
Protocol: (§1) Overnight cultures in Mueller-Hinton broth were suspended by buffered saline gelatin. One loopful of the bacterial suspension (10^6 or 10^8 colony-forming units/ml) was incubated onto the plates containing test compounds. The plates were incubated for 18 hrs at 37° C. The MIC was defined by the lowest concentration of the drug that inhibited visible growth of bacteria.

[2] = tested on: Enterococcus faecalis HPC 975; test: as above; format: cell-based; settings: HPC975, 10^6 cfu/ml, clinically isolated strain, Gram +, 18 hrs at 37° C
Protocol: as §1

[3] = tested on: Acinetobacter calcoaceticus HNR 939; test: as above; format: cell-based; settings: HNR939, 10^6 cfu/ml, clinically isolated strain, Gram -, 18 hrs at 37° C
Protocol: as §1

Enterobacter cloacae 963 = test: as above; format: cell-based; settings: 10^6 cfu/ml, standard laboratory strain, Gram -, 18 hrs at 37° C
Protocol: as §1

[4] = tested on: Enterococcus faecalis HPC 948; test: as above; format: cell-based; settings: HPC948, 10^6 cfu/ml, clinically isolated strain, Gram +, 18 hrs at 37° C
Protocol: as §1

[5] = tested on: Klebsiella pneumoniae HNR 858; test: as above; format: cell-based; settings: HNR858, 10^6 cfu/ml, clinically isolated strain, Gram -, 18 hrs at 37° C
Protocol: as §1

[6] = tested on: Staphylococcuss aureus HPC 292; test: as above; format: cell-based; settings: 10^6 cfu/ml; clinically isolated strain, Gram +; 18 hrs at 37° C; read-out: MIC
Protocol: as §1

[7] = tested on: Pseudomonas aeruginosa HNR 1537; test: as above; format: cell-based; settings: HNR1537, 10^6 cfu/ml, clinically isolated strain, Gram -, 18 hrs at 37° C
Protocol: as §1

[8] = tested on: Enterobacter cloacae HNR 1941; test: as above; format: cell-based; settings: HNR1941, 10^6 cfu/ml, clinically isolated strain, Gram -, 18 hrs at 37° C
Protocol: as §1

[9] = tested on: Escherichia coli NIHJ JC-2; test: as above; format: cell-based; settings: NIHJJC2, 10^6 cfu/ml, standard laboratory strain, Gram -, 18 hrs at 37° C
Protocol: as §1

[10] = tested on: Pseudomonas aeruginosa HNR 1489; test: as above; format: cell-based; settings: HNR1489, 10^6 cfu/ml, clinically isolated strain, Gram -, 18 hrs at 37° C
Protocol: as §1

[11] = tested on: Staphylococuss aureus FDA 209PJC-1; test: as above; format: cell-based; settings: 10^6 cfu/ml; standard laboratory strain, Gram +; 18 hrs at 37° C
Protocol: as §1

[12] = tested on: Enterobacter cloacae HNR 1946; test: as above; format: cell-based; settings: HNR1946, 10^6 cfu/ml, clinically isolated strain, Gram -, 18 hrs at 37° C
Protocol: as §1

[13] = tested on: Serratia marcescens IAM 1184; test: as above; format: cell-based; settings: IAM1184, 10^6 cfu/ml, standard laboratory strain, Gram -, 18 hrs at 37° C
Protocol: as §1

[14] = tested on: Klebsiella pneumoniae HNR 828; test: as above; format: cell-based; settings: HNR828, 10^6 cfu/ml, clinically isolated strain, Gram -, 18 hrs at 37° C
Protocol: as §1

[15] = tested on: Staphylococcuss aureus HPC 527; test: as above; format: cell-based; settings: 10^6 cfu/ml; clinically isolated strain, Gram +; 18 hrs at 37° C
Protocol: as §1

[16] = tested on: Acinetobacter calcoaceticus HNR 916; test: as above; format: cell-based; settings: HNR916, 10^6 cfu/ml, clinically isolated strain, Gram -, 18 hrs at 37° C
Protocol: as §1

[17] = tested on: Acinetobacter calcoaceticus HNR 904; test: as above; format: cell-based; settings: HNR904, 10^6 cfu/ml, clinically isolated strain, Gram -, 18 hrs at 37° C
Protocol: as §1

[18] = tested on: Serratia marcescens HNR 1792; test: as above; format: cell-based; settings: HNR1792, 10^6 cfu/ml, clinically isolated strain, Gram -, 18 hrs at 37° C
Protocol: as §1

[19] = tested on: Serratia marcescens HNR 1767; test: as above; format: cell-based; settings: HNR1767, 10^6 cfu/ml, clinically isolated strain, Gram -, 18 hrs at 37° C
Protocol: as §1

[20] = tested on: Serratia marcescens HNR 1544; test: as above; format: cell-based; settings: HNR1544, 10^6 cfu/ml, clinically isolated strain, Gram -, 18 hrs at 37° C
Protocol: as §1

[21] = tested on: Pseudomonas aeruginosa IFO 3445; test: as above; format: cell-based; settings: IFO3445, 10^6 cfu/ml, standard laboratory strain, Gram -, 18 hrs at 37° C
Protocol: as §1

[22] = tested on: Klebsiella pneumoniae HNR 869; test: as above; format: cell-based; settings: HNR869, 10^6 cfu/ml, clinically isolated strain, Gram -, 18 hrs at 37° C
Protocol: as §1

[23] = tested on: Enterobacter cloacae HNR 1939; test: as above; format: cell-based; settings: HNR1939, 10^6 cfu/ml, clinically isolated strain, Gram -, 18 hrs at 37° C
Protocol: as §1

Male mice of ddY strain = test: Convulsion inducing activity in combination with fenbufen; settings: 30 min after fenbufen 100 mg/kg orally
Protocol: Male mice of ddY strain, 5 weeks old, were used. Fenbufen suspended in 0.5% carboxymethyl cellulose was administered orally at a dose of 100 mg/kg. After thirty minutes, test compounds suspended in 0.5% carboxymethyl cellulose were injected intraperitoneally (i.p.) at a dose of 100 mg/kg or 300 mg/kg.

[24] = tested on: Pseudomonas aeruginosa HNR 1472; test: Antibacterial spectrum, MIC by twofold agar dilution method; format: cell-based; settings: HNR1472, 10^6 cfu/ml, clinically isolated strain, Gram -, 18 hrs at 37° C
Protocol: as §1

[25] = tested on: Klebsiella pneumoniae PCI-602; test: as above; format: cell-based; settings: PCI602, 10^6 cfu/ml, standard laboratory strain, Gram -, 18 hrs at 37° C, read-out: MIC
Protocol: Minimum inhibitory concentrations (MIC) of test compounds were determined by the twofold agar dilution method (Chemotherapy, 29(1), 76(1981)). Overnight cultures in Mueller-Hinton broth were suspended by buffered saline gelatin. One loopful of the bacterial suspension (10^6 or 10^8 colony-forming units/ml) was incubated onto the plates containing test compounds. The plates were incubated for 18 hrs at 37° C. The MIC was defined by the lowest concentration of the drug that inhibited visible growth of bacteria.

[26] = tested on: Staphylococcuss aureus HPC 308; test: as above; format: cell-based; settings: 10^6 cfu/ml; clinically isolated strain, Gram +; 18 hrs at 37° C
Protocol: as §1

Row | Compound | MIC [1] | MIC [2] | MIC [3] | MIC (Enterobacter cloacae 963) | MIC [4] | MIC [5] | MIC [6] | MIC [7] | MIC [8] | MIC [9] | MIC [10] | MIC [11] | MIC [12] | MIC [13] | MIC [14] | MIC [15] | MIC [16] | MIC [19] | MIC [20] | MIC [21] | also measured
1 | CC1Sc2c(C(=O)O)c(=O)c3cc(F)c(N4CCC(N)C4)c(F)c3n21 (stereo not shown) [Example 33, 7-(3-amino-1-pyrrolidinyl)-6,8-difluoro-1-methyl-4-oxo-1H,4H-[1,3] thiazeto[3,2-a]quinoline-3-carboxylic acid] | 0.2 µg/mL (≈ 0.544 µM) | 6.25 µg/mL (≈ 17 µM) | 1.56 µg/mL (≈ 4.25 µM) | 0.05 µg/mL (≈ 0.136 µM) | 0.78 µg/mL (≈ 2.12 µM) | 0.2 µg/mL (≈ 0.544 µM) | 6.25 µg/mL (≈ 17 µM) | 12.5 µg/mL (≈ 34 µM) | 3.13 µg/mL (≈ 8.52 µM) | 0.025 µg/mL (≈ 0.068 µM) | 0.2 µg/mL (≈ 0.544 µM) | 0.025 µg/mL (≈ 0.068 µM) | 0.2 µg/mL (≈ 0.544 µM) | 0.1 µg/mL (≈ 0.272 µM) | 3.13 µg/mL (≈ 8.52 µM) | 0.05 µg/mL (≈ 0.136 µM) | 0.2 µg/mL (≈ 0.544 µM) | 12.5 µg/mL (≈ 34 µM) | 0.05 µg/mL (≈ 0.136 µM) | 0.1 µg/mL (≈ 0.272 µM) | MIC [17]: 25 µg/mL (≈ 68 µM); MIC [18]: 1.56 µg/mL (≈ 4.25 µM); MIC [22]: 0.78 µg/mL (≈ 2.12 µM); MIC [23]: 0.2 µg/mL (≈ 0.544 µM); Number of convulsion induced/Number of animals (Male mice of ddY strain; 100 mg/kg (i.p.)): 0/6; Number of convulsion induced/Number of animals (Male mice of ddY strain; 300 mg/kg (i.p.)): 0/6
2 | CC1Sc2c(C(=O)O)c(=O)c3cc(F)c(N4CCC(N)C4)c(Cl)c3n21 (stereo not shown) [Example 34, 7-(3-Amino-1-pyrrolidinyl)-8-chloro-6-fluoro-1-methyl-4-oxo-1H,4H-[1,3]thiazeto[3,2-a]quinoline-3-carboxylic acid] | 0.2 µg/mL (≈ 0.521 µM) | 12.5 µg/mL (≈ 32.6 µM) | 1.56 µg/mL (≈ 4.06 µM) | 0.025 µg/mL (≈ 0.0651 µM) | 0.78 µg/mL (≈ 2.03 µM) | 0.2 µg/mL (≈ 0.521 µM) | 6.25 µg/mL (≈ 16.3 µM) | 3.13 µg/mL (≈ 8.15 µM) | 1.56 µg/mL (≈ 4.06 µM) | 0.025 µg/mL (≈ 0.0651 µM) | 0.2 µg/mL (≈ 0.521 µM) | 0.05 µg/mL (≈ 0.13 µM) | 0.2 µg/mL (≈ 0.521 µM) | 0.05 µg/mL (≈ 0.13 µM) | 3.13 µg/mL (≈ 8.15 µM) | 0.05 µg/mL (≈ 0.13 µM) | 0.1 µg/mL (≈ 0.261 µM) | 6.25 µg/mL (≈ 16.3 µM) | 0.05 µg/mL (≈ 0.13 µM) | 0.1 µg/mL (≈ 0.261 µM) | MIC [24]: 3.13 µg/mL (≈ 8.15 µM); MIC [22]: 0.78 µg/mL (≈ 2.03 µM); MIC [23]: 0.2 µg/mL (≈ 0.521 µM); MIC [25]: 0.012 µg/mL (≈ 0.0313 µM); Number of convulsion induced/Number of animals (Male mice of ddY strain; 100 mg/kg (i.p.)): 0/6; Number of convulsion induced/Number of animals (Male mice of ddY strain; 300 mg/kg (i.p.)): 0/6
3 | CC1Sc2c(C(=O)O)c(=O)c3cc(F)c(N4CC[C@H](N(C)C)C4)c(Cl)c3n21 (stereo partly drawn) [Example 35, 8-Chloro-7-((S)-3-dimethylamino-1-pyrrolidinyl)-6-fluoro-1-methyl-4-oxo-1H,4H-[1,3]thiazeto[3,2-a]quinoline-3-carboxylic acid] | 0.39 µg/mL (≈ 0.947 µM) | 12.5 µg/mL (≈ 30.3 µM) | 1.56 µg/mL (≈ 3.79 µM) | 0.1 µg/mL (≈ 0.243 µM) | 1.56 µg/mL (≈ 3.79 µM) | 0.39 µg/mL (≈ 0.947 µM) | 12.5 µg/mL (≈ 30.3 µM) | 25 µg/mL (≈ 60.7 µM) | 6.25 µg/mL (≈ 15.2 µM) | 0.1 µg/mL (≈ 0.243 µM) | 0.78 µg/mL (≈ 1.89 µM) | 0.1 µg/mL (≈ 0.243 µM) | 0.39 µg/mL (≈ 0.947 µM) | 0.2 µg/mL (≈ 0.486 µM) | 6.25 µg/mL (≈ 15.2 µM) | 0.1 µg/mL (≈ 0.243 µM) | 0.1 µg/mL (≈ 0.243 µM) | 12.5 µg/mL (≈ 30.3 µM) | 0.1 µg/mL (≈ 0.243 µM) | 0.78 µg/mL (≈ 1.89 µM) | MIC [24]: 12.5 µg/mL (≈ 30.3 µM); MIC [26]: 0.78 µg/mL (≈ 1.89 µM); MIC [17]: 3.13 µg/mL (≈ 7.6 µM); MIC [18]: 3.13 µg/mL (≈ 7.6 µM); MIC [22]: 1.56 µg/mL (≈ 3.79 µM); MIC [23]: 0.39 µg/mL (≈ 0.947 µM); MIC [25]: 0.05 µg/mL (≈ 0.121 µM)
